By pIC50 is commonly meant the IC50 on a negative log10 scale, so that one unit is a factor of ten.

Consider 28 compounds from patent US20120214822A1 (ASTRAZENECA AB, priority 2007, published 2012).

SMILES strings stand for the structures.

human active recombinant p38α-6His tagged, sequence (Q16539 whole entry): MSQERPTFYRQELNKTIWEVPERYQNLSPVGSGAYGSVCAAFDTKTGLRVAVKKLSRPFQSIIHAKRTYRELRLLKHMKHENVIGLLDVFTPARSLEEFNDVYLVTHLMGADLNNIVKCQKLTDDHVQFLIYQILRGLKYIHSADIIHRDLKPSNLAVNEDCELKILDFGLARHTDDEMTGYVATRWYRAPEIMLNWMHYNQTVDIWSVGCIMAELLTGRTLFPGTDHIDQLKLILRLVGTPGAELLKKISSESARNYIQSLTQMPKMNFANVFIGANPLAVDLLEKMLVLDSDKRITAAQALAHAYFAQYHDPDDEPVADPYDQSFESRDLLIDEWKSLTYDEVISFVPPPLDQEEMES

The experiment addresses human active recombinant p38α-6His tagged (Homo sapiens, UniProt Q16539). Put plainly: P38 Alpha Enzyme Assay (AlphaScreen, biotinylated-ATF2 substrate).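 Note: 0.5 nM final p38α, reaction started with ATP and run 45 min at 37 °C, phospho-ATF2 read by antibody-based AlphaScreen, background wells quenched with EDTA before ATP.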 The experiment is classed as biochemical. Conditions: p38 alpha enzyme inhibition; means of replicate determinations; 4 h pre-incubation at 37° C.; SD of assay 0.2-0.3 log units. (In general: In Alpha technology, singlet oxygen from a donor bead excites a nearby acceptor bead.)
Regarding `Cc1ccc(C(=O)NC2CC2)cc1-n1ccnc(NC2(c3ccccc3OCCNC(C)C)CC2)c1=O` [Example 234, N-Cyclopropyl-4-methyl-3-[3-[[1-[2-[2-[(1-methylethyl)amino]ethoxy]phenyl]cyclopropyl]amino]-2-oxo-1(2H)-pyrazinyl]-benzamide], the pIC50 was 10.3.
Turning to `Cc1ccc(C(=O)NC2CC2)cc1-n1ccnc(NC2(c3ccccc3OCCN3CCCN(C)CC3)CC2)c1=O` [Example 235, N-Cyclopropyl-3-[3-[[1-[2-[2-(hexahydro-4-methyl-1H-1,4-diazepin-1-yl)ethoxy]phenyl]cyclopropyl]amino]-2-oxo-1(2H)-pyrazinyl]-4-methyl-benzamide], the pIC50 was found to be 9.7.
As for `Cc1ccc(C(=O)NC2CC2)cc1-n1ccnc(NC2(c3ccccc3OCCN3CC[C@@H](O)C3)CC2)c1=O` [Example 236, N-Cyclopropyl-3-[3-[[1-[2-[2-[(3R)-3-hydroxy-1-pyrrolidinyl]ethoxy]phenyl]cyclopropyl]amino]-2-oxo-1(2H)-pyrazinyl]-4-methyl-benzamide], the figure is 10.
As for `Cc1ccc(C(=O)NC2CC2)cc1-n1ccnc(NC2(c3ccccc3OCCN(C)C)CC2)c1=O` [Example 237, N-Cyclopropyl-3-[3-[[1-[2-[2-(dimethylamino)ethoxy]phenyl]cyclopropyl]amino]-2-oxo-1(2H)-pyrazinyl]-4-methyl-benzamide], the figure is 9.9; as for `Cc1ccc(C(=O)NC2CC2)cc1-n1ccnc(NC2(c3ccccc3OCCN3CCCC3)CC2)c1=O` [Example 238, N-Cyclopropyl-4-methyl-3-[2-oxo-3-[[1-[2-[2-(1-pyrrolidinyl)ethoxy]phenyl]cyclopropyl]amino]-1(2H)-pyrazinyl]-benzamide], 9.7.
For `Cc1ccc(C(=O)NC2CC2)cc1-n1ccnc(NC2(c3ccccc3OCCN3CCC[C@H]3CO)CC2)c1=O` [Example 239, N-Cyclopropyl-3-[3-[[1-[2-[2-[(2S)-2-(hydroxymethyl)-1-pyrrolidinyl]ethoxy]phenyl]cyclopropyl]amino]-2-oxo-1(2H)-pyrazinyl]-4-methyl-benzamide] the value was 9.6.
For the compound `Cc1ccc(C(=O)NC2CC2)cc1-n1ccnc(NC2(c3ccccc3OCCNCC(F)(F)F)CC2)c1=O` [Example 240, N-Cyclopropyl-4-methyl-3-[2-oxo-3-[[1-[2-[2-[(2,2,2-trifluoroethyl)amino]ethoxy]phenyl]cyclopropyl]amino]-1(2H)-pyrazinyl]-benzamide], the pIC50 was 8.8.
On to `CCN(C)CCOc1ccccc1C1(Nc2nccn(-c3cc(C(=O)NC4CC4)ccc3C)c2=O)CC1` [Example 241, N-Cyclopropyl-3-[3-[[1-[2-[2-(ethylmethylamino)ethoxy]phenyl]cyclopropyl]amino]-2-oxo-1(2H)-pyrazinyl]-4-methyl-benzamide], for which the pIC50 came to 9.5.
As for `Cc1ccc(C(=O)NC2CC2)cc1-n1ccnc(NC2(c3ccccc3OCCNCC(C)(C)CO)CC2)c1=O` [Example 242, N-Cyclopropyl-3-[3-[[1-[2-[2-[(3-hydroxy-2,2-dimethylpropyl)amino]ethoxy]phenyl]cyclopropyl]amino]-2-oxo-1(2H)-pyrazinyl]-4-methyl-benzamide], the pIC50 came to 9.7.
Take `Cc1ccc(C(=O)NC2CC2)cc1-n1ccnc(NC2(c3ccccc3OCCN3CCNCC3)CC2)c1=O` [Example 243, N-Cyclopropyl-4-methyl-3-[2-oxo-3-[[1-[2-[2-(1-piperazinyl)ethoxy]phenyl]cyclopropyl]amino]-1(2H)-pyrazinyl]-benzamide]: the negative logarithm of the IC50 (pIC50) stood at 9.4.
In the case of `Cc1ccc(C(=O)NC2CC2)cc1-n1ccnc(NC2(c3ccccc3OCCN3CCC(F)(F)C3)CC2)c1=O` [Example 244, N-Cyclopropyl-3-[3-[[1-[2-[2-(3,3-difluoro-1-pyrrolidinyl)ethoxy]phenyl]cyclopropyl]amino]-2-oxo-1(2H)-pyrazinyl]-4-methyl-benzamide], the pIC50 was 9.2.
As for `Cc1ccc(C(=O)NC2CC2)cc1-n1ccnc(NC2(c3ccccc3OCCNCCF)CC2)c1=O` [Example 245, N-Cyclopropyl-3-[3-[[1-[2-[2-[(2-fluoroethyl)amino]ethoxy]phenyl]cyclopropyl]amino]-2-oxo-1(2H)-pyrazinyl]-4-methyl-benzamide], the figure is 9.5; as for `CCC(C)NCCOc1ccccc1C1(Nc2nccn(-c3cc(C(=O)NC4CC4)ccc3C)c2=O)CC1` (stereo not shown) [Example 246, N-Cyclopropyl-4-methyl-3-[3-[[1-[2-[2-[(1-methylpropyl)amino]ethoxy]phenyl]cyclopropyl]amino]-2-oxo-1(2H)-pyrazinyl]-benzamide], 9.8.
As for `Cc1ccc(C(=O)NC2CC2)cc1-n1ccnc(NC2(c3ccccc3OCCN3CCC[C@H]3C)CC2)c1=O` [Example 247, N-Cyclopropyl-4-methyl-3-[3-[[1-[2-[2-[(2R)-2-methyl-1-pyrrolidinyl]ethoxy]phenyl]cyclopropyl]amino]-2-oxo-1(2H)-pyrazinyl]-benzamide], the figure is 9.8; as for `Cc1ccc(C(=O)NC2CC2)cc1-n1ccnc(NC2(c3ccccc3OCCNC3CCC3)CC2)c1=O` [Example 248, 3-[3-[[1-[2-[2-(cyclobutylamino)ethoxy]phenyl]cyclopropyl]amino]-2-oxo-1(2H)-pyrazinyl]-N-Cyclopropyl-4-methyl-benzamide], 10; as for `Cc1ccc(C(=O)NC2CC2)cc1-n1ccnc(NC2(c3ccccc3OCCN[C@H](C)CO)CC2)c1=O` [Example 249, N-Cyclopropyl-3-[3-[[1-[2-[2-[[(1R)-2-hydroxy-1-methylethyl]amino]ethoxy]phenyl]cyclopropyl]amino]-2-oxo-1(2H)-pyrazinyl]-4-methyl-benzamide], 9.9.
Regarding `Cc1ccc(C(=O)NC2CC2)cc1-n1ccnc(NC2(c3ccccc3OCCNCCCO)CC2)c1=O` [Example 250, N-Cyclopropyl-3-[3-[[1-[2-[2-[(3-hydroxypropyl)amino]ethoxy]phenyl]cyclopropyl]amino]-2-oxo-1(2H)-pyrazinyl]-4-methyl-benzamide], the pIC50 came out at 9.7.
For `Cc1ccc(C(=O)NC2CC2)cc1-n1ccnc(NC2(c3ccccc3OCCN)CC2)c1=O` [Example 251, 3-[3-[[1-[2-(2-aminoethoxy)phenyl]cyclopropyl]amino]-2-oxo-1(2H)-pyrazinyl]-N-cyclopropyl-4-methyl-benzamide] the value was 10.1; for `CCNCCOc1ccccc1C(C)(C)Nc1nccn(-c2cc(C(=O)NC3CC3)cc(F)c2C)c1=O` [Example 252, N-Cyclopropyl-3-[3-[[1-[2-[2-(ethylamino)ethoxy]phenyl]-1-methylethyl]amino]-2-oxo-1(2H)-pyrazinyl]-5-fluoro-4-methyl-benzamide], 10.1.
As for `Cc1c(F)cc(C(=O)NC2CC2)cc1-n1ccnc(NC(C)(C)c2ccccc2OCCNCCO)c1=O` [Example 253, N-Cyclopropyl-3-fluoro-5-[3-[[1-[2-[2-[(2-hydroxyethyl)amino]ethoxy]phenyl]-1-methylethyl]amino]-2-oxo-1(2H)-pyrazinyl]-4-methyl-benzamide], the pIC50 is listed as 10.2.
For `Cc1c(F)cc(C(=O)NC2CC2)cc1-n1ccnc(NC(C)(C)c2ccccc2OCCNC(C)C)c1=O` [Example 254, N-Cyclopropyl-3-fluoro-4-methyl-5-[3-[[1-methyl-1-[2-[2-[(1-methylethyl)amino]ethoxy]phenyl]ethyl]amino]-2-oxo-1(2H)-pyrazinyl]-benamide] the value was 10.2.
Turning to `COCCNCCOc1ccccc1C(C)(C)Nc1nccn(-c2cc(C(=O)NC3CC3)cc(F)c2C)c1=O` [Example 255, N-Cyclopropyl-3-fluoro-5-[3-[[1-[2-[2-[(2-methoxyethyl)amino]ethoxy]phenyl]-1-methylethyl]amino]-2-oxo-1(2H)-pyrazinyl]-4-methyl-benzamide], the pIC50 is given as 10.2.
As for `Cc1c(F)cc(C(=O)NC2CC2)cc1-n1ccnc(NC(C)(C)c2ccccc2OCCNC[C@@H](C)O)c1=O` [Example 256, N-Cyclopropyl-3-fluoro-5-[3-[[1-[2-[2-[[(2R)-2-hydroxypropyl]amino]ethoxy]phenyl]-1-methylethyl]amino]-2-oxo-1(2H)-pyrazinyl]-4-methyl-benzamide], the figure is 10.5; as for `Cc1c(F)cc(C(=O)NC2CC2)cc1-n1ccnc(NC(C)(C)c2ccccc2OCCNCC(C)(C)O)c1=O` [Example 257, N-Cyclopropyl-3-fluoro-5-[3-[[1-[2-[2-[(2-hydroxy-2-methylpropyl)amino]ethoxy]phenyl]-1-methylethyl]amino]-2-oxo-1(2H)-pyrazinyl]-4-methyl-benzamide], 10.3.
As for `Cc1c(F)cc(C(=O)NC2CC2)cc1-n1ccnc(NC(C)(C)c2ccccc2OCCNC[C@H](C)O)c1=O` [Example 258, N-Cyclopropyl-3-fluoro-5-[3-[[1-[2-[2-[[(2S)-2-hydroxypropyl]amino]ethoxy]phenyl]-1-methylethyl]amino]-2-oxo-1(2H)-pyrazinyl]-4-methyl-benzamide], the figure is 10.4; as for `CNCCOc1ccccc1C1(Nc2nccn(-c3cc(C(=O)NC4CC4)cc(F)c3C)c2=O)CC1` [Example 259, N-Cyclopropyl-3-fluoro-4-methyl-5-[3-[[1-[2-[2-(methylamino)ethoxy]phenyl]cyclopropyl]amino]-2-oxo-1(2H)-pyrazinyl]-benzamide], 10.
Consider `Cc1c(F)cc(C(=O)NC2CC2)cc1-n1ccnc(NC2(c3ccccc3OCCNCCO)CC2)c1=O` [Example 260, N-Cyclopropyl-3-fluoro-5-[3-[[1-[2-[2-[(2-hydroxyethyl)amino]ethoxy]phenyl]cyclopropyl]amino]-2-oxo-1(2H)-pyrazinyl]-4-methyl-benzamide], for which the pIC50 worked out at 10.3.
As for `COCCNCCOc1ccccc1C1(Nc2nccn(-c3cc(C(=O)NC4CC4)cc(F)c3C)c2=O)CC1` [Example 261, N-Cyclopropyl-3-fluoro-5-[3-[[1-[2-[2-[(2-methoxyethyl)amino]ethoxy]phenyl]cyclopropyl]amino]-2-oxo-1(2H)-pyrazinyl]-4-methyl-benzamide], the figure is 10.5.
